Reference: US9957230B2, “Synergistic compositions” (Cadila Healthcare Limited, priority 2013, dated 2018)
Counter-ions that a name gives are not always drawn.

Key:
Assay type in all cases: in vivo
db/db mice [1] = assay: Antidiabetic activity in db/db mice (studies I and II): non-fasting serum glucose; conditions: Compound (Ia) 0.1 mg/kg; for Serum Glucose (mg/dl) Day 0: Day 0 (pretreatment); for Serum Glucose (mg/dl) Day 12: Day 12, non-fasting; for % Change Vs control: serum glucose day 12 vs vehicle control; for % Change Day 12 vs Day 0: serum glucose
Source text: The in-vivo efficacy for antidiabetic activity was done for (I) and (II) individually with db/db mice of 13-14 weeks of age.
8. […] 8. The treatment was given oral gavages once daily for 14 days. […]

[2] = system: high fat high cholesterol fed Syrian golden hamster; assay: Lipid lowering effects with Rosuvastatin Calcium in HF-HC fructose diet Syrian golden hamsters (study III); conditions: Compound (Ia) 3 mg/kg
Source text: (§1) The in-vivo efficacy was done in high fat high cholesterol fed Syrian golden hamster. It is an excellent model to investigate hepatic assembly and secretion of lipoprotein since its lipoprotein metabolism closely resembles that of humans as they have cholesteryl ester transfer protein (CETP) as like human. Feeding high fat high cholesterol diet to Syrian golden hamster causes hypercholesterolemia and hypertriglyceridemia which causes an increase in LDL levels and decrease in HDL-C/TC ratio.
In this experiment, 21 Syrian golden hamsters which were kept on high fat-high cholesterol (HF-HC) fructose diet were divided into 3 treatment groups and one group was on normal diet control which was NIN (National Institute of Nutrition, NIN diet) control, the treatment given was as per Table no. 1. NIN control and HF-HC fructose diet vehicle control groups were treated with vehicle (10% Polyethylene glycol (PEG) 400+90% of 0.5% methyl cellulose) and other three groups with treatment mentioned in Table no. 13. The treatment was given oral gavages once daily for 7 days.
Calculations of the % change in LDL-C levels, HDL-C and LDL-C/HDL-C ratio (Vs HF-HC fructose diet control) were performed using MS Excel.

db/db mice [3] = assay: Antidiabetic activity with Vildagliptin and Metformin in db/db mice (study IV): non-fasting serum glucose; conditions: Vildagliptin 1 mg/kg
Source text: The in-vivo efficacy for antidiabetic activity was done female db/db mice of 10-15 weeks of age.
(§2) 1. […] 17. The treatment was given oral gavages once daily for 14 days.
(§3) The OGTT procedure followed is as given below—

db/db mice [4] = assay: Oral glucose tolerance test in db/db mice (study IV); conditions: Compound Ia 0.1 mg/kg, Vildagliptin 1 mg/kg, Metformin 100 mg/kg; for % improvement in AUC glucose vs control: Table 19 and text, OGTT after 14 days of treatment
Source text: as §2, §3

[5] = system: high fat high cholesterol fed Syrian golden hamster; assay: Lipid lowering effects with Atorvastatin in HF-HC fructose diet Syrian golden hamsters (study V)
Source text: as §1
In this experiment, 18 Syrian golden hamsters which were kept on high fat-high cholesterol (HF-HC) fructose diet were divided into 3 treatment groups and one group was on normal diet control which was NIN (National Institute of Nutrition, NIN diet) control, the treatment given was as per Table no. 1. […] 20. The treatment was given oral gavages once daily for 13 days.
Calculations of the % change in LDL-C levels, triglyceride and LDL-C/HDL-C ratio (Vs HF-HC fructose diet control) were performed using MS Excel.

db/db mice [6] = assay: Oral glucose tolerance test in db/db mice (studies VII and VIII); conditions: for AUC Glucose: OGTT day 7, fasting, glucose load 2 gm/kg
Source text: In this experiment, 49 db/db mice of 12-16 week were divided into 7 groups and as per their day 0 serum glucose levels. […] Detail treatments and routes of administrations were mentioned in Table no. 27. The treatment was given once daily for 7 days.
The blood was collected by retro-orbital sinus puncture method under light ether anesthesia on day 0 (pretreatment) and on day 6 (one hour after dose administration) for non-fasting glucose analysis and oral glucose tolerance test (OGTT) was performed on day 7 of the treatment in fasting condition. After blood collection serum was separated and analyzed glucose analysis using Spectra max and commercial diagnostic kits. The OGTT procedure followed is as given below—
Oral Glucose Tolerance Test (OGTT): One day before OGTT all animals were kept on overnight fasting and on the day of OGTT, day 7 of the treatment each animal was dosed with a single dose of vehicle/test compounds administered orally and 60-min post dosing blood was collected (0 min) and glucose load (2 gm/kg/10 ml) administered per orally. Blood was then collected at time points corresponding to 30, 60 and 120 min after glucose load administration. Serum was separated and analyzed for glucose using Spectra max and commercial diagnostic kits.
The calculation for antidiabetic activity i.e. effect on serum glucose and improvement in glucose Area Under Curve (AUC) was calculated using the excel sheet and Graph Pad Prism software. The day-0 and day-6 glucose values of vehicle control and treatment were considered for calculating the effect on serum glucose. The effect on glucose AUC was calculated using the OGTT glucose levels at different time points and the improvement in glucose AUC were the reduction in glucose AUC after the treatment during OGTT.

[7] = Table 9, female db/db mice, Sitagliptin 3 mg/kg p.o. once daily
[8] = Table 9, Sitagliptin 3 mg/kg p.o. once daily
[9] = Table 11, female db/db mice, Metformin 150 mg/kg p.o. once daily
[10] = Table 11, Metformin 150 mg/kg p.o. once daily
[11] = HF-HC fructose diet hamsters, 7 days, Rosuvastatin calcium 0.3 mg/kg
[12] = HF-HC fructose diet hamsters, 13 days, Compound (Ia) 3 mg/kg, Atorvastatin 0.5 mg/kg
[13] = Table 23, LDL/HDL ratio, Day 13, Compound Ia 3 mg/kg, Atorvastatin 0.5 mg/kg

CCO[C@@H](Cc1ccc(OCCn2c(C)ccc2-c2ccc(SC)cc2)cc1)C(=O)O [Compound (Ia), Benzenepropanoic acid, α-ethoxy-4-[2-[2-methyl-5-[4-(methylthio)phenyl]-1H -pyrrol-1-yl]ethoxy]-, magnesium salt] was tested, and the “Serum Glucose (mg/dl) Day 0” value (db/db mice [1]; [7]) was 407.8 ± 28.9 mg/dL, the “Serum Glucose (mg/dl) Day 12” value (db/db mice [1]; [7]) was 276.9 ± 39.4 mg/dL and the “% Change Vs control” value (db/db mice [1]; [8]) was −32.8 ± 6.0%. The “% Change Day 12 vs Day 0” value (db/db mice [1]; [8]) was −33.0 ± 5.9%, the “Serum Glucose (mg/dl) Day 0” value (db/db mice [1]; [9]) was 407.8 mg/dL and the “Serum Glucose (mg/dl) Day 12” value (db/db mice [1]; [9]) was 276.9 mg/dL. The “% Change Vs control” value (db/db mice [1]; [10]) was −32.8%, the “% Change Day 12 vs Day 0” value (db/db mice [1]; [10]) was −33.0% and the “reduction in serum glucose” value (db/db mice [1]; female db/db mice, Sitagliptin 3 mg/kg, Metformin 150 mg/kg) was 32.8%. The “reduction in LDL-C” value [2, 11] was 9.9%, the “reduction in LDL-C/HDL-C ratio, atherogenic index” value [2, 11] was 4.9% and the “Serum LDL-C (mg/dl) Day 0” value ([2]; Table 14, Day 0 (pretreatment), HF-HC fructose diet hamsters, Rosuvastatin calcium 0.3 mg/kg oral once daily 7 days) was 114.8 mg/dL. For the same molecule, the “LDL-C % Change vs Day 0” value ([2]; Table 14, Day 7, Rosuvastatin calcium 0.3 mg/kg) was 9.2%, the “Serum LDL-C (mg/dl) Day 7” value ([2]; Table 14, Day 7, HF-HC fructose diet hamsters, Rosuvastatin calcium 0.3 mg/kg oral once daily 7 days) was 123.7 mg/dL and the “% Change vs HF-HC Fructose Control” value ([2]; Table 14, LDL-C, Day 7, Rosuvastatin calcium 0.3 mg/kg) was −9.9%. The “Serum HDL-C (mg/dl) Day 0” value ([2]; Table 15, Day 0 (pretreatment), HF-HC fructose diet hamsters, Rosuvastatin calcium 0.3 mg/kg oral once daily 7 days) was 101.8 mg/dL, the “HDL-C % Change vs Day 0” value ([2]; Table 15, Day 7, Rosuvastatin calcium 0.3 mg/kg) was 9.8% and the “Serum HDL-C (mg/dl) Day 7” value ([2]; Table 15, Day 7, HF-HC fructose diet hamsters, Rosuvastatin calcium 0.3 mg/kg oral once daily 7 days) was 111.5 mg/dL. The “Serum LDL-C/HDL-C Ratio Day 0” value ([2]; Table 16, Day 0 (pretreatment), HF-HC fructose diet hamsters, Rosuvastatin calcium 0.3 mg/kg) was 1.13, the “LDL/HDL % Change Vs Day 0” value ([2]; Table 16, Day 7, Rosuvastatin calcium 0.3 mg/kg) was −0.3% and the “Serum LDL-C/HDL-C Ratio Day 7” value ([2]; Table 16, Day 7, HF-HC fructose diet hamsters, Rosuvastatin calcium 0.3 mg/kg) was 1.09. For the same molecule, the “% Change vs HF-HC Fructose Control” value ([2]; Table 16, LDL-C/HDL-C ratio, Day 7, Rosuvastatin calcium 0.3 mg/kg) was −4.9%, the “Serum Glucose (mg/dl) Day 0” value (db/db mice [3]; Table 18, Day 0 (pretreatment), female db/db mice, Compound Ia 0.1 mg/kg, Metformin 100 mg/kg p.o. once daily) was 375.4 mg/dL and the “Serum Glucose (mg/dl) Day 12” value (db/db mice [3]; Table 18, Day 12, one hour after dose, non-fasting, Compound Ia 0.1 mg/kg, Metformin 100 mg/kg p.o. once daily) was 209.0 mg/dL. The “% Change Vs control” value (db/db mice [3]; Table 18, serum glucose day 12 vs vehicle control, Compound Ia 0.1 mg/kg, Metformin 100 mg/kg) was −34.3%, the “% Change Day 12 vs Day 0” value (db/db mice [3]; Table 18, serum glucose, Compound Ia 0.1 mg/kg, Metformin 100 mg/kg) was −43.8% and the “reduction in serum glucose” value (db/db mice [3]; female db/db mice, Compound (Ia) 0.1 mg/kg, Metformin 100 mg/kg) was 34.3%. The “AUC Glucose” value (db/db mice [4]; Table 19, OGTT day 14, fasting, glucose load 2 gm/kg) was 69613.3 mg·min/dL, the “% improvement in AUC glucose vs control” value (db/db mice [4]) was “does no show any improvement” and the “% improvement in AUC glucose vs control” value (db/db mice [4]; listed as Compound Ia) was −12.0%. For the same molecule, the “reduction in LDL-C” value [5, 12] was 14.8%, the “reduction in LDL-C/HDL-C ratio, atherogenic index” value [5, 12] was “does not showed any reduction” and the reduction in triglyceride [5, 12] was 65.2%. For the same molecule, the “Serum LDL-C (mg/dl) Day 0” value ([5]; Table 21, Day 0 (pretreatment), HF-HC fructose diet hamsters, Compound Ia 3 mg/kg, Atorvastatin 0.5 mg/kg oral once daily 13 days) was 75.1 mg/dL, the “LDL-C % Change vs Day 0” value ([5]; Table 21, Day 13, Compound Ia 3 mg/kg, Atorvastatin 0.5 mg/kg) was 0.1% and the “Serum LDL-C (mg/dl) Day 13” value ([5]; Table 21, Day 13, HF-HC fructose diet hamsters, Compound Ia 3 mg/kg, Atorvastatin 0.5 mg/kg oral once daily 13 days) was 73.1 mg/dL. For the same molecule, the “% Change vs HF-HC Fructose Control” value ([5]; Table 21, LDL-C, Day 13, Compound Ia 3 mg/kg, Atorvastatin 0.5 mg/kg) was −14.8%, the “Serum triglyceride (mg/dl) Day 0” value ([5]; Table 22, Day 0 (pretreatment), HF-HC fructose diet hamsters, Compound Ia 3 mg/kg, Atorvastatin 0.5 mg/kg oral once daily 13 days) was 418.4 mg/dL and the “TG % Change vs Day 0” value ([5]; Table 22, Day 13, Compound Ia 3 mg/kg, Atorvastatin 0.5 mg/kg) was −64.0%. For the same molecule, the “Serum triglyceride (mg/dl) Day 13” value ([5]; Table 22, Day 13, HF-HC fructose diet hamsters, Compound Ia 3 mg/kg, Atorvastatin 0.5 mg/kg oral once daily 13 days) was 149.5 mg/dL, the “% Change vs HF-HC Fructose Control” value ([5]; Table 22, triglyceride, Day 13, Compound Ia 3 mg/kg, Atorvastatin 0.5 mg/kg) was −65.2% and the “LDL/HDL RATIO Day 0” value ([5]; Table 23, Day 0 (pretreatment), HF-HC fructose diet hamsters, Compound Ia 3 mg/kg, Atorvastatin 0.5 mg/kg) was 0.79. For the same molecule, the “LDL/HDL RATIO Day 13” value ([5]; Table 23, Day 13, HF-HC fructose diet hamsters, Compound Ia 3 mg/kg, Atorvastatin 0.5 mg/kg) was 0.82, the “% Change vs HF-HC Fructose Control” value [5, 13] was 8.5% and the “Change vs Day 0” value [5, 13] was 6.4. For the same molecule, the “AUC Glucose” value (db/db mice [6]; Table 29, Compound Ia 0.1 mg/kg p.o., Exenatide 0.1 μg/kg i.p.) was 46452.6 mg·min/dL, the “% improvement in AUC glucose vs control” value (db/db mice [6]; Table 29 and text, OGTT day 7, Compound Ia 0.1 mg/kg p.o., Exenatide 0.1 μg/kg i.p.) was 23.7% and the “AUC Glucose” value (db/db mice [6]; Table 31, Compound Ia 0.1 mg/kg, Glimepiride 2 mg/kg p.o.) was 46452.6 mg·min/dL. For the same molecule, the “% improvement in AUC glucose vs control” value (db/db mice [6]; Table 31 and text, OGTT after 7 days of treatment, Compound Ia 0.1 mg/kg, Glimepiride 2 mg/kg p.o.) was 23.7%.
